Source: patent publication US4826838A, “Analgesic carbocyclic and heterocyclic carbonylmethylene-and carbonylmethypipidines and-pyrrolidines” (Sandoz Ltd., priority 1985, dated 1989)

What was measured:
5-HT3 receptors = details: isolated rabbit vagus nerve; cited from earlier work
migraine attack = details: slow i.v. injection of 10 mg; cited from earlier work
behavioral activity = test: Studies A to D taken together (ethological and endocrinological tests); assay type: in vivo, mouse
Method: Male intruder mice show only low levels of social activity and high levels of defensive activity when introduced into the home cage of an individually housed adult male. Benzodiazepines and related drugs increase approaxh activities in this situation (Dixon 1982, Triangle 21: 95-105 (1982) Krsiak. M. Br. J. Pharmacol. 55: 141-150 (1975)). Compounds of formula I, in oral doses of 0.1 to 1 mg/kg increase approach oriented social activity.
Stretched attend postures in mice signify an ambivalent form of conflict which is inhibited by putative anxiolytics (Kaeserman HP Psychopharmacology (1986) 89: 31-37). Compounds of formula I, when given 2 hours before, reduce the duration of stretched attend postures to mice placed on a novel elevated platform.
Compounds of formula I reduce such stress-induced corticosterone at 1 mg/kg p.o. whilst doses from 0.1 to 0.3 increase plasma levels of this hormone.

5-HT3 receptor = details: cantharidine blister base; cited from earlier work

Compound | blockade of the action of serotonin on the C fibre action potential (5-HT3 receptors) | relative activity among the compounds of formula I (behavioral activity) | also measured
CC[C@@H](CO)NC(=O)[C@@H]1C=C2c3cccc4c3c(cn4C)C[C@H]2N(C)C1 [methysergide] | not blocked |  | 
CCN(CC)CCNC(=O)c1cc(Cl)c(N)cc1OC [Metoclopramide] |  |  | effect on a migraine attack (migraine attack): immediate beneficial effect
CN1C2CCC1CC(=CC(=O)c1c[nH]c3ccccc13)C2 (single isomer, unassigned; (+)) [compound F, (+)-Indol-3-yl-carbonyl-methylenyl-3-(8-methyl-8-azabicyclo[3.2.1]octane)] |  | most active | 
CN1C2CCC1CC(=CC(=O)c1c[nH]c3ccccc13)C2 [compound E, Indol-3-yl-carbonyl-methylenyl-3-(8-methyl-8-azabicyclo[3.2.1]octane)] |  | most active | 
CCN(CC)C(=O)[C@@H]1C=C2c3cccc4[nH]cc(c34)C[C@H]2N(C)C1 [lysergic acid diethylamide] |  |  | inhibition of the algesic action of serotonin (5-HT3 receptor): not inhibited
CCN(CC)C(=O)[C@@H]1C=C2c3cccc4[nH]c(Br)c(c34)C[C@H]2N(C)C1 [BOL -148] | not blocked |  | 
CSc1ccc2c(c1)C(N1CCN(C)CC1)Cc1ccccc1S2 (stereo not drawn) [metitepine] | not blocked |  | 
CCN(CC)C(=O)[C@@H]1C=C2c3cccc4[nH]c(Br)c(c34)C[C@H]2N(C)C1 [its bromo derivative] |  |  | inhibition of the algesic action of serotonin (5-HT3 receptor): not inhibited
CN1C2CCC1CC(=CC(=O)c1c[nH]c3ccccc13)C2 (single isomer, unassigned; (-)) [compound G, (-)-Indol-3-yl-carbonyl-methylenyl-3-(8-methyl-8-azabicyclo[3.2.1]octane)] |  | most active | 
